Experiment: in vitro
Conditions: human, hela cells, % viability

Row | SMILES | viability at 28.5 h, 10 µM
1 | c1nc2nc[nH]c(N3CCN(Cc4ccc5c(c4)OCO5)CC3)c-2n1 [CBK287283] | 83.5%
2 | O=C(Nc1ccccc1C(=O)O)c1ccc(S(=O)(=O)N2CCCCC2)cc1 [CBK265174] | 103%
3 | CC(C(=O)NC(c1ccncc1)c1cccs1)n1ccnc1 (centres unmarked) [CBK281438] | 90.9%
4 | Cc1ccc(-c2noc(CN3CCN(c4ccccc4)CC3)n2)cc1 [CBK265924] | 101%
5 | O=C(O)/C=C\C(=O)NCC(=O)O [CBK260989] | 93.5%
6 | O=C(CC1CCCC1)NCCn1nc(-c2cccs2)oc1=O [CBK282386] | 87.2%
7 | CN(C(=O)Cc1ccccc1)c1ccccc1 [CBK012581] | 103%
8 | Cn1c(SCCC(=O)O)nnc1-c1ccc2c(c1)OCO2 [CBK269842] | 92.6%
9 | COc1cc(-c2cncc(N3CCCC3CO)n2)cc(OC)c1OC (centres unmarked) [CBK065389] | 104%
10 | COc1ccc(C(=O)Nc2ccccc2Nc2cc(-c3ccccc3)nn2-c2ccccc2)cc1 [CBK261296] | 88.4%
11 | O=c1[nH]c(=O)c2cc(S(=O)(=O)N3CCN(c4ccccn4)CC3)ccc2[nH]1 [CBK286379] | 112%
12 | CCC(CC)C(=O)N(C)c1c(C)nc2ccc(C(=O)NCc3ccc(OC)cc3)cn12 [CBK146501] | 97.9%
13 | Cc1ccnc(NS(=O)(=O)c2ccc(NC(=O)c3cc(-c4ccc(Br)cc4)nc4ccccc34)cc2)n1 [CBK263650] | 96.8%
14 | Cn1c(=O)n(CC#N)c2ccccc21 [CBK025636] | 96.9%
15 | CC(=O)c1cc(C(=O)Nc2ccc(Oc3ccc4c(c3)OCO4)cc2)cs1 [CBK286327] | 92.5%
16 | CCN1CCCC1CNC(=O)c1cc(Br)cnc1N1CCOCC1 (centres unmarked) [CBK076213] | 87.1%
17 | O=C(NCC1CCCO1)C1(Cc2ccc(-c3ccc(F)c(F)c3)cc2)CCOCC1 (centres unmarked) [CBK285534] | 97.2%
18 | CC(=O)N1N=C(c2cccnc2)OC1(C)C [CBK023619] | 90.4%
19 | Cc1ccc2nsnc2c1NC(=O)COc1ccc([N+](=O)[O-])cc1 [CBK033705] | 95.6%
20 | CN(C)S(=O)(=O)N(CC(=O)Nc1cccnc1)c1ccccc1 [CBK267958] | 119%
21 | OC1(c2cccnc2F)CCN(Cc2cccc(F)c2)CC1 [CBK284373] | 85.5%
22 | CCCCn1nc(Cn2cncn2)nc1CC1NC(=O)c2ccccc21 (centres unmarked) [CBK307395] | 108%

Row | SMILES | viability at 28.5 h, 10 µM
23 | O=C(Nc1ccccc1-c1nc2ccccc2s1)c1cc(Br)ccc1Cl [CBK266280] | 94.9%
24 | Fc1cc2c3c(c1)c1c(n3CCC2)CCNCC1 [CBK018406C] | 105%
25 | O=S(=O)(NCCN1CCCC1)c1cccc2nsnc12 [CBK261132] | 97.3%
26 | CC(Nc1cccc2ccccc12)C(=O)N/N=C/c1ccc([N+](=O)[O-])cc1 (centres unmarked) [CBK262676] | 84.2%
27 | O=C(Nc1ccc(N2CCN(C(=O)c3cccs3)CC2)cc1)c1ccc(-c2cc3ccccc3oc2=O)cc1 [CBK267340] | 96.2%
28 | c1cn2cc(-c3ccc(N4CCOCC4)cc3)nc(NCC3CCOCC3)c2n1 [CBK037308] | 96.3%
29 | CCOC(=O)c1cnc(C(C)(C)C)nc1O [CBK018470] | 88.6%
30 | COCCCN(Cc1ccc(F)c(F)c1)Cc1ccccn1 [CBK282961] | 90.7%
31 | O=S(=O)(c1ccc(NC(=S)NCc2cccnc2)cc1)N1CCOCC1 [CBK268396] | 72.8%
32 | CC1CCCCN1S(=O)(=O)c1ccc(-n2ncc(Cl)c(Cl)c2=O)cc1 (centres unmarked) [CBK305035] | 90.6%
33 | CC(NC(=O)CC1(N2CCOCC2)CCCC1)c1cccc(C#N)c1 (centres unmarked) [CBK305320] | 106%
34 | Cc1sc2nc(C(C)N(C)Cc3cc[nH]n3)[nH]c(=O)c2c1C (centres unmarked) [CBK306275] | 99.3%
35 | O=C(O)c1cn(C2CC2)c2cc(N3CCN(C(=S)Nc4ccc5c(c4)OCCO5)CC3)c(F)cc2c1=O [CBK268916] | 90.9%
36 | O=C(CCN1CCCCC1)NC1Cc2ccccc2C1 [CBK200364] | 98.3%
37 | Cc1nc(-c2cc3c(s2)CCN(Cc2ccc(CO)o2)C3)cs1 [CBK306411] | 90%
38 | Cc1nn(CC(=O)N2CCCCCC2)c(=O)c2cc3occc3n12 [CBK283624] | 96.5%
39 | Cc1ccc(-c2nnc(CNC(=O)C(c3ccccc3)c3ccccc3)o2)s1 [CBK286299] | 102%
40 | CC(Sc1nc2ccc(Cl)cc2o1)C(=O)N1CCOCC1 (centres unmarked) [CBK305164] | 92.1%
41 | COc1cccc(CNc2ccc(C3c4ccsc4CCN3C(C)=O)cc2)c1 (centres unmarked) [CBK286443] | 109%
42 | CSc1nc2ccc(NC(=O)CSc3nnnn3-c3ccccc3)cc2s1 [CBK263549] | 88.3%
43 | CN1CCN(/N=C/c2c(C(F)(F)F)[nH]n(-c3nc4ccccc4s3)c2=O)CC1 [CBK263163] | 92.4%
44 | N=c1n(CCN2CCCCC2)c2ccccc2n1CC(O)COc1ccc(Cl)cc1Cl (centres unmarked) [CBK266336C] | 31%

Row | SMILES | viability at 28.5 h, 10 µM
45 | COc1cc(CN2CCC(C(=O)c3ccc(F)cc3)CC2)cc(OC)c1OC [CBK149112] | 99.5%
46 | O=C(CCCOc1ccccc1)Nc1ccc(N2CCNCC2)nc1 [CBK028270T] | 98.2%
47 | CNC(=O)CN1C(=O)CC2(C1=O)C(=O)N(CCOC)c1ccc(C)cc12 (centres unmarked) [CBK075401] | 97.1%
48 | O=c1[nH]nc(SCc2csc(COc3ccc(Cl)cc3)n2)n1C1CC1 [CBK295146] | 87.9%
49 | CSc1ncc(Cl)c(C(=O)Nc2ccc(S(=O)(=O)N3CCC(Cc4ccccc4)CC3)cc2)n1 [CBK268870] | 96.3%
50 | CCC1CCC2(CC1)NC(=O)N(CC(=O)Nc1nccs1)C2=O (centres unmarked) [CBK305936] | 95.9%
51 | CSCCC(=O)Nc1ccc2ncccc2c1 [CBK159818] | 87.2%
52 | O=C(O)CC1SC(Nc2ccccc2F)=NC1=O (centres unmarked) [CBK059096] | 94.9%
53 | Cc1ccc(C(=O)O)cc1NC(=O)C(=O)NCC(c1ccccc1)N(C)C (centres unmarked) [CBK286777] | 96.3%
54 | CCCCOc1nccnc1-c1ccc(C)c(C)c1 [CBK106870] | 95.1%
55 | CCN(CC)C(=O)CN1C(=O)C2(Nc3ccccc3C(=O)N2c2ccc(F)cc2)c2ccccc21 (centres unmarked) [CBK103751] | 83.3%
56 | Fc1ccc2c(ccn2CCCN2CCN(c3ccncc3)CC2)c1 [CBK043645G] | 89.4%
57 | CCc1ccc(OCC(=O)O/N=C(\N)c2ccncc2)c(Br)c1 [CBK265994] | 86.6%
58 | Clc1ccc(SCCN2CCNCC2)cc1 [CBK266077G] | 94.2%
59 | CC(C)CCn1c(=O)c(C(=O)Nc2ccccc2S(N)(=O)=O)c(O)c2ccccc21 [CBK262294] | 104%
60 | O=C(CN1CCC(c2ccccc2F)CC1)NC1CCCC1 [CBK283551] | 97.4%
61 | Cc1cnn(CC(=O)N2CC[C@H]3NC(=O)c4ccccc4OCCCCC[C@H]3C2)c1 [CBK292010] | 107%
62 | Cc1cc(NC(=O)c2nn3c(C(F)(F)F)cc(-c4ccccc4)nc3c2Cl)nn1CC(=O)N1CCOCC1 [CBK268209] | 105%
63 | CCC(=O)c1cccc2c1NC=C1C(=O)CC(C)(C)CC1=N2 [CBK265821] | 108%
64 | N#Cc1ccccc1-c1ccc(CSc2cccc(F)c2)cc1 [CBK002920] | 107%
65 | Cc1cc(C[C@@H]2CCC[C@H]2NCc2cccnc2)on1 [CBK284933] | 97.1%
66 | COC(=O)c1ccc(SCc2nc(N3CCOCC3)c3c(c2C#N)CC(C)(C)OC3)o1 [CBK019077] | 114%

Row | SMILES | viability at 28.5 h, 10 µM
67 | COCC(C)NC(=O)c1cc2c(C)cc(C)cc2[nH]1 (centres unmarked) [CBK057591] | 91.8%
68 | O=S(=O)(Nc1cccc(-c2nnn[nH]2)c1)c1ccc(Br)s1 [CBK160377] | 101%
69 | Cc1cc(C(=O)Nc2c(C)noc2C)n[nH]1 [CBK200395] | 87.4%
70 | Cc1ccc(NC(=O)C(=O)NCCCN2CCOCC2)cc1Cl [CBK264806] | 97.4%
71 | CCOCc1ccc(C(=O)N2CCNC(=O)C2Cc2ccc(-c3cccs3)cc2)cc1 (centres unmarked) [CBK285811] | 97.3%
72 | COCCn1c(SCc2ccc([N+](=O)[O-])cc2)nc2c([nH]c3ccccc32)c1=O [CBK294415] | 90%
73 | Nc1ncc(-c2ccc(N3CCOCC3)cc2)nc1N1CCN(CCO)CC1 [CBK063394] | 95.8%
74 | CCOC(=O)CC1=C(C(=O)OCC)C(c2ccccc2C(F)(F)F)C(C#N)=C(N)O1 (centres unmarked) [CBK262710] | 105%
75 | Nc1ncnc2c1cnn2[C@H]1C[C@@H](O)[C@@H](CO)O1 [CBK201325] | 98%
76 | O=C(NCC1CCCCC1)C1(Cc2ccc(-c3ccncc3)cc2)CCOCC1 [CBK285564] | 121%
77 | COCCNC(=O)Nc1ccc2nc(-c3ccccn3)c(-c3ccccn3)nc2c1 [CBK265151] | 89.9%
78 | c1cnc2c(-c3cn4ccnc4c(NC4CC4)n3)cccc2c1 [CBK037911] | 111%
79 | O=C(COc1ccc([N+](=O)[O-])cc1)N/N=C/c1cc(Br)cc(Br)c1O [CBK262094] | 98.3%
80 | CCOC(=O)C1CCCN(C(=O)Cn2c(C)nc3ccccc3c2=O)C1 (centres unmarked) [CBK306150] | 77.9%
81 | Cc1cccc(C)c1NC(=O)CN1CCN(c2nccnc2OC2CCCCC2)CC1 [CBK082835T] | 103%
82 | CC(=O)Nc1ccc(C(=O)CSc2nc(-c3ccccc3)cs2)cc1 [CBK268038] | 101%
83 | COc1ccc(CNC2CCCc3c2cnn3C)c(OC)c1 (centres unmarked) [CBK304875] | 103%
84 | CCCNC(=O)Cn1ncc2c3sc(C)cc3n(CC)c2c1=O [CBK284171] | 85.8%
85 | Cc1nnc(-c2cc(CC(C)C)n(-c3cccc(C(=O)N4CC=CCC4)c3)n2)o1 [CBK114630] | 91.6%
86 | CCCNC(C)C(=O)Nc1c(C)csc1C(=O)O (centres unmarked) [CBK287064] | 113%

Same assay, conditions: human, hela cells, % viability, bulk resorufin, single well

Row | SMILES | viability at 28.5 h, 10 µM
87 | CC(C)=C1C2CCC1C(C(=O)N1CCC3(CC1)OCCO3)C2C(=O)O (centres unmarked) [CBK286937] | 92.7%
88 | CN1C(=O)C(=CNCCN2CCN(C(=S)Nc3ccccc3)CC2)C(=O)N(C)C1=O [CBK262858] | 97.5%
89 | COc1ccc(-c2ccc3c(c2)OC2(CCNCC2)O3)c(OC)c1 [CBK091451] | 93.2%

From paper PMC12040169 (PLOS Biology, 2025)
